In patent publication US20070249732A1, “USE OF CERTAIN PHENYL NAPTHYL COMPOUNDS FOR PROTECTION OF NEURONS AND OLIGODENDROCYTES IN THE TREATMENT OF MULTIPLE SCLEROSIS (MS)” (AVENTIS PHARMACEUTICALS INC., priority 2005, published 2007):
Where two headings read alike, the source gives them in different places.

Tests used:
[1] = target: T1, ERα (Homo sapiens, UniProt P03372); experiment: Fluorescence Polarization Competition Assay, ERα binding affinity; conditions: Fluormone ligand, read-out: Affinity for ER α
T1 construct: purchased Panvera P2698
T1 sequence (P03372 1-595): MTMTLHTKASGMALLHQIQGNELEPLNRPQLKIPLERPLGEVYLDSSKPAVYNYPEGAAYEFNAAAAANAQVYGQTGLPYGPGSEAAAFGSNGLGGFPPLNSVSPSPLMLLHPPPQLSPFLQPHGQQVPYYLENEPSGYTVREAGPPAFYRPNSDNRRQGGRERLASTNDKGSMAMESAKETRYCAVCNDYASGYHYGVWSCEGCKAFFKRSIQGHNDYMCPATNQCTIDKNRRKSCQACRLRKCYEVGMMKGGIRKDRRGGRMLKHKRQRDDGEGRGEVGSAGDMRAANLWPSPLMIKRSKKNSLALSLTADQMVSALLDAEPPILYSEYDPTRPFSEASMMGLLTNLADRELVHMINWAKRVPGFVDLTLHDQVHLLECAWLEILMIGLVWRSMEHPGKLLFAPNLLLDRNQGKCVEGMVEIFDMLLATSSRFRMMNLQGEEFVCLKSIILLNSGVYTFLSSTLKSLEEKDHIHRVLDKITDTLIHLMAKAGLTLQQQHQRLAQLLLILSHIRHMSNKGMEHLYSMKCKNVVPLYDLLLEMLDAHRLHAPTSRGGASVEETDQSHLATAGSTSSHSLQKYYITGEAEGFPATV
Experimental: (§1) A number of compounds were tested for ERα and ERβ binding affinity using Panvera's Fluorescence Polarization Competition Assay Kits (cat. nos. P2698 and P2700). Briefly, ERα or ERβ were thawed on ice from −80° C. An estrogen receptor and fluorescent ligand (Fluormone TM) complex was formed at a 15/1 molar ratio for ERα and at a 10/1 molar ratio for ERβ (2X complex). Serial dilutions of the test compounds were made in assay buffer and the assay was initiated by adding 50 ul of the 2X receptor-ligand complex to 50 ul of compound solution in black 96-well plates. Zero percent competition (theoretical maximum polarization) was measured in wells containing 50 ul of buffer and 50 ul of the 2X receptor-ligand complex. The plates were incubated after gentle shaking in the dark at room temperature. Polarization values (mP) were read no longer than 7 hours after the reaction was started with a FARCyte Fluorescent reader (Amersham) at excitation and emission wavelengths of 485 nm and 535 nm, respectively. Data was analyzed using non-linear regression and IC50 values determined using GraphPad Prism. Estradiol was used as the reference compound.

[2] = tested on: mature oligodendrocytes; experiment: Oligodendrocyte Toxicity Assay (LDH), mature oligodendrocytes; format: cell-based; conditions: Rattus norvegicus; protection against SIN-1-induced toxicity; 1 hour pretreatment, LDH after 24 hours
Experimental: (§2) Primary rat oligodendrocyte progenitor cells were obtained from the cerebra of 2-3 day old postnatal rats (Sprague Dawley). The meninges were removed and tissue was mechanically dissociated. Cells were plated on T75 flasks and fed with DMEM +10% FBS.
(§3) Enriched OLPs were collected by mechanical separation from the astrocytic monolayer and were expanded in serum free media (SFM) supplemented with the mitogens, PDGF-AA (10 ng/mI) and FGF-2 (10 ng/mI).
To generate mature oligodendrocytes, progenitor cells were switched to SFM supplemented with IGF-1 (10ng/ml) 24 hours after plating and cells were grown under these conditions for 7 days prior to experimental assays.
Cells were plated in 96-well plates, 10,000 per well. Medium was changed to fresh medium and cells were pretreated with compounds for 1 hour. […]
(§4) After 24 hours, medium was removed and assayed for LDH activity using the Promega cytotox 96 kit (catalog# G1780). Results were calculated as percent protection against toxin-induced toxicity.
(§5) These compounds have been assessed for their efficacy in protection against cell death produced by toxic agents such as SIN-1 (3-morpholino-sydnonimine, producing peroxynitrite) and camptothecin. The target cells assessed in vitro are primary cultures of rodent oligodendrocyte progenitors and their mature counterparts.

[3] = tested on: primary rat oligodendrocyte progenitor cells; experiment: Oligodendrocyte Toxicity Assay (LDH), progenitor cells; format: cell-based; conditions: Oligodendrocyte progenitor cell, 1 hour pretreatment, LDH after 24 hours
Experimental: as §2, §3
Cells were plated in 96-well plates, 10,000 per well. Medium was changed to fresh medium and cells were pretreated with compounds for 1 hour. Toxins were added to give the following final concentrations: Sin-110 mM, Camptothecin 1 μM
as §4, §5

[4] = target: T2, ERβ (Homo sapiens, UniProt Q92731); experiment: Fluorescence Polarization Competition Assay, ERβ binding affinity; conditions: Fluormone ligand, read-out: Affinity for ER β
T2 construct: purchased Panvera P2700
T2 sequence (Q92731 whole entry): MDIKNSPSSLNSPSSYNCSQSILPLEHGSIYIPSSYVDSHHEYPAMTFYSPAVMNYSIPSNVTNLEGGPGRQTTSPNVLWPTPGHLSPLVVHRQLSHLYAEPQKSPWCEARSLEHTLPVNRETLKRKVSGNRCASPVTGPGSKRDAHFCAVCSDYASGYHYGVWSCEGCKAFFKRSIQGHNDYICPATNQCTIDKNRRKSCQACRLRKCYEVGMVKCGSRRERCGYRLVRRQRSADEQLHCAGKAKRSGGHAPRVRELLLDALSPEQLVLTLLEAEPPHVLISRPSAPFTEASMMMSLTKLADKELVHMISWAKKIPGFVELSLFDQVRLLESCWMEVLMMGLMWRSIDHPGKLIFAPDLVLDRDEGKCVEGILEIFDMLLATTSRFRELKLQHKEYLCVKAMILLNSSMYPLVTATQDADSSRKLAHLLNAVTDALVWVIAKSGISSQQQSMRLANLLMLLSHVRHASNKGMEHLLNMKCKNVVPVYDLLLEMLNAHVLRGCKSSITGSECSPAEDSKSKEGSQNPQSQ
Experimental: as §1

IC50 [1]: 35.4 nM | IC50 [4]: 3 nM
SMILES: Oc1ccc(-c2ccc3cc(O)ccc3c2Cl)cc1 [5-chloro-6-(4-hydroxyphenyl)-2-naphthalenol]
IC50 [2]: > 30000 nM | IC50 ([3]; protection against SIN-1-induced toxicity, read-out: Progenitor Oligodendrocytes SIN-1 IC50): 2170 nM | IC50 ([3]; protection against camptothecin (1 μM)-induced toxicity, read-out: Progenitor Oligodendrocytes Camptothecin IC50): < 3000 nM
